Assay results from patent US20250346574A1, “PYRIDINYL SUBSTITUTED OXOISOINDOLINE COMPOUNDS FOR THE TREATMENT OF CANCER” (Bristol-Myers Squibb Company, priority 2021, published 2025).

Target: Helios (Homo sapiens, UniProt Q96SW2+Q9UKS7)
Experiment: Helios Human T Regulatory Cells Degradation Assay
Type: cell-based
Design: fluorescently labelled antibodies against Helios in 1× Permeabilization buffer; endogenous in cells; host or cells: cryopreserved human T regulatory cells
Settings: cryopreserved human T regulatory cells, incubated 20 hours, Helios-APC antibody staining, flow cytometry; read-out: hTreg Helios DC50
Description: Cryopreserved human T regulatory cells were thawed in RPMI+10% FBS+20 ng/mL IL-2. After being spun at 1200 rpm for 5 mins, the cells were resuspended in RPMI+10% FBS+20 ng/mL and rested at 37° C. with 5% CO2 for 3 hours. […] Cell cultures were incubated for 20 hours at 37° C. and 5% CO2. In order to facilitate analysis, cell cultures were spun down at 1200 rpm for 5 minutes and the supernatant was discarded using an EL406 plate washer. After washing three times with 70 μL PBS, cell pellets were resuspended in 50 μL of near IR viability staining solution (Life Technologies, Cat #L34975) and incubated for 30 minutes on ice protected from light. Cells were washed three times with 70 μL PBS+0.5% BSA using an EL406 plate washer. […] Subsequently, 30 μL of 1× Permeabilization buffer was added prior to centrifuging the cells and discarding the supernatant. Stained cells were resuspended in 30 μL of flow cytometry staining buffer (PBS+0.5% BSA) and analyzed using an Intellicyt Ique Plus flow cytometer.

Chain of Helios (Q9UKS7 whole entry): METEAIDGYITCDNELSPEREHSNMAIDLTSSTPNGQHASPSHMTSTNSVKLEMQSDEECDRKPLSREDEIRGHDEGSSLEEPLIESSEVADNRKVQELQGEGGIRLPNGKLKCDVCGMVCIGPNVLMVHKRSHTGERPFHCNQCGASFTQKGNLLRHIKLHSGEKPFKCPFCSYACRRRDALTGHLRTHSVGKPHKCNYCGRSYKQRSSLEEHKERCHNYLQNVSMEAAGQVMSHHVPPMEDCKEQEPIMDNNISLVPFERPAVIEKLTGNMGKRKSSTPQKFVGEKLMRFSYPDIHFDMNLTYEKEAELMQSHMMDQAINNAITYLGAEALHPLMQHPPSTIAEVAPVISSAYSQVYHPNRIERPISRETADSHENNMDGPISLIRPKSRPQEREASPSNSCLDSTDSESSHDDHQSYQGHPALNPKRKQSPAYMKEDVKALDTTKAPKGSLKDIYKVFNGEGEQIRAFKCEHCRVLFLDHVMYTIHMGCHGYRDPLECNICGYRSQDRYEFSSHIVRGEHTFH
Chain of Helios (Q96SW2 whole entry): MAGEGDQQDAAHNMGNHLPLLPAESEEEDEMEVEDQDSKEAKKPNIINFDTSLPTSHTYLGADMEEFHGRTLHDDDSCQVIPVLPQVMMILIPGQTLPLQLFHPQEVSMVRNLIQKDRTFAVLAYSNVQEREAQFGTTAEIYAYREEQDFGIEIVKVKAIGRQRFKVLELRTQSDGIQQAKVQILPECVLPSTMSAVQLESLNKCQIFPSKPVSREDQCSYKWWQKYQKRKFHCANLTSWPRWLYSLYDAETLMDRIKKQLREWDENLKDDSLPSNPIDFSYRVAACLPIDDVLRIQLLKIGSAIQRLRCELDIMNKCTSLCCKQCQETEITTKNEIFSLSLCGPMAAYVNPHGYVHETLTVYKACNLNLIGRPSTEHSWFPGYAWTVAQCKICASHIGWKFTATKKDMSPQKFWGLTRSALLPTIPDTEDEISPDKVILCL
Chain of Helios (Q16531 whole entry partner): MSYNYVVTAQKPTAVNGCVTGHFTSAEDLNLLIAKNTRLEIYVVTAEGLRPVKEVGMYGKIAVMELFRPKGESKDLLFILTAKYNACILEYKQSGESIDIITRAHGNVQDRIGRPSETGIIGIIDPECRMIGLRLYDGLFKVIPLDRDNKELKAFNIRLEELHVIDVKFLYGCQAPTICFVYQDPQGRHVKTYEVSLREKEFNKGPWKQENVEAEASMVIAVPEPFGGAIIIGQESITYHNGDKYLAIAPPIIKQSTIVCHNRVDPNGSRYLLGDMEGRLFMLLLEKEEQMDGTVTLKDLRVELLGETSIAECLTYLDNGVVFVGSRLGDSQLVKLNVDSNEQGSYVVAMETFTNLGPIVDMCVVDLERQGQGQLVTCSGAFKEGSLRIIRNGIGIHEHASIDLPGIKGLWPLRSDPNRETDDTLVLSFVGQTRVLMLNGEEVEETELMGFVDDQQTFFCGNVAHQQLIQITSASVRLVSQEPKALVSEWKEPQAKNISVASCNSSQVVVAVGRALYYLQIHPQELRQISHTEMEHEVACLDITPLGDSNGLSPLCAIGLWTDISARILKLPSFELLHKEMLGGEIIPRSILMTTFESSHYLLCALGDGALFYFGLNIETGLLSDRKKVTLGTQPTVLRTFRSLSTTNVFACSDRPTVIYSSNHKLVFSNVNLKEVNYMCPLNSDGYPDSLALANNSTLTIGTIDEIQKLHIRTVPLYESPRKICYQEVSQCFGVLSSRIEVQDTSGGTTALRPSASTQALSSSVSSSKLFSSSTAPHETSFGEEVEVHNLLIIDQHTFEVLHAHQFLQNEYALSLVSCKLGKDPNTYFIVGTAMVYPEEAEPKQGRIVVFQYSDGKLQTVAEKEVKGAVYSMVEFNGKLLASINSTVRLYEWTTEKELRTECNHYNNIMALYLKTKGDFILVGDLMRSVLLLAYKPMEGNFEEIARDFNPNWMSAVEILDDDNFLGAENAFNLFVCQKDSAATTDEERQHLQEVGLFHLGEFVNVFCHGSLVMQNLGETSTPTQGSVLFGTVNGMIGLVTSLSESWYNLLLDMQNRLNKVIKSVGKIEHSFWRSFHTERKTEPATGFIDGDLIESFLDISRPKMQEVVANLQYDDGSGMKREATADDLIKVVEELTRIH

DC50	Compound
0.0015 µM	COc1cc(CN2CC3(CCC3)C2)cc(-c2ccc3c(c2)CN(C2CCC(=O)NC2=O)C3=O)n1 (stereo not shown) [Example 174, 3-(5-(4-((2-azaspiro[3.3]heptan-2-yl)methyl)-6-methoxypyridin-2-yl)-1-oxoisoindolin-2-yl)piperidine-2,6-dione]
0.0002 µM	COc1cc(CN2CCC(C3CC3)C2)cc(-c2ccc3c(c2)CN(C2CCC(=O)NC2=O)C3=O)n1 (stereo not shown) [Example 175, 3-(5-(4-((3-cyclopropylpyrrolidin-1-yl)methyl)-6-methoxypyridin-2-yl)-1-oxoisoindolin-2-yl)piperidine-2,6-dione]
≥ 10 µM	O=C1CCC(N2Cc3cc(-c4cc(CN5CC6(CCC6)C5)c(C(F)(F)F)cn4)ccc3C2=O)C(=O)N1 (stereo not shown) [Example 180, 3-(5-(4-((2-azaspiro[3.3]heptan-2-yl)methyl)-5-(trifluoromethyl)pyridin-2-yl)-1-oxoisoindolin-2-yl)piperidine-2,6-dione]
≥ 10 µM	COCC1CN(Cc2cc(-c3ccc4c(c3)CN(C3CCC(=O)NC3=O)C4=O)ncc2C(F)(F)F)C1 (stereo not shown) [Example 181, 3-(5-(4-((3-(methoxymethyl)azetidin-1-yl)methyl)-5-(trifluoromethyl)pyridin-2-yl)-1-oxoisoindolin-2-yl)piperidine-2,6-dione]
≥ 10 µM	O=C1CCC(N2Cc3cc(-c4nccc(CN5CCC(OC(F)(F)F)C5)c4F)ccc3C2=O)C(=O)N1 (stereo not shown) [Example 183, 3-(5-(3-fluoro-4-((3-(trifluoromethoxy)pyrrolidin-1-yl)methyl)pyridin-2-yl)-1-oxoisoindolin-2-yl)piperidine-2,6-dione]
3.16 µM	O=C1CCC(N2Cc3cc(-c4nccc(CN5CC[C@H](F)C5)c4F)ccc3C2=O)C(=O)N1 (stereo partly drawn) [Example 184, 3-(5-(3-fluoro-4-(((S)-3-fluoropyrrolidin-1-yl)methyl)pyridin-2-yl)-1-oxoisoindolin-2-yl)piperidine-2,6-dione]
≥ 10 µM	O=C1CCC(N2Cc3cc(-c4nccc(CN5CCC(O)(C(F)(F)F)C5)c4F)ccc3C2=O)C(=O)N1 (stereo not shown) [Example 185, 3-(5-(3-fluoro-4-((3-hydroxy-3-(trifluoromethyl)pyrrolidin-1-yl)methyl)pyridin-2-yl)-1-oxoisoindolin-2-yl)piperidine-2,6-dione]
≥ 10 µM	O=C1CCC(N2Cc3cc(-c4nccc(CN5Cc6cccc(F)c6C5)c4F)ccc3C2=O)C(=O)N1 (stereo not shown) [Example 186, 3-(5-(3-fluoro-4-((4-fluoroisoindolin-2-yl)methyl)pyridin-2-yl)-1-oxoisoindolin-2-yl)piperidine-2,6-dione]
≥ 10 µM	O=C1CCC(N2Cc3cc(-c4nccc(CN5Cc6ccc(Cl)cc6C5)c4F)ccc3C2=O)C(=O)N1 (stereo not shown) [Example 187, 3-(5-(4-((5-chloroisoindolin-2-yl)methyl)-3-fluoropyridin-2-yl)-1-oxoisoindolin-2-yl)piperidine-2,6-dione]
0.0287 µM	CC(C)(C)NC(=O)C1CCCN1Cc1ccnc(-c2ccc3c(c2)CN(C2CCC(=O)NC2=O)C3=O)c1 (stereo not shown) [Example 188, N-(tert-butyl)-1-((2-(2-(2,6-dioxopiperidin-3-yl)-1-oxoisoindolin-5-yl)pyridin-4-yl)methyl)pyrrolidine-2-carboxamide]
0.0064 µM	COCC1N(Cc2ccnc(-c3ccc4c(c3)CN(C3CCC(=O)NC3=O)C4=O)c2)CC12CCC2 (stereo not shown) [Example 189, 3-(5-(4-((1-(methoxymethyl)-2-azaspiro[3.3]heptan-2-yl)methyl)pyridin-2-yl)-1-oxoisoindolin-2-yl)piperidine-2,6-dione]
0.0497 µM	O=C1CCC(N2Cc3cc(-c4cc(CN5CCC[C@H]5C(=O)NC5CCCCC5)ccn4)ccc3C2=O)C(=O)N1 (stereo partly drawn) [Example 190, (2S)—N-cyclohexyl-1-((2-(2-(2,6-dioxopiperidin-3-yl)-1-oxoisoindolin-5-yl)pyridin-4-yl)methyl)pyrrolidine-2-carboxamide]
0.0536 µM	O=C1CCC(N2Cc3cc(-c4cc(CN5CC[C@@H]5COc5ccc(Cl)nc5)ccn4)ccc3C2=O)C(=O)N1 (stereo partly drawn) [Example 191, 3-(5-(4-(((R)-2-(((6-chloropyridin-3-yl)oxy)methyl)azetidin-1-yl)methyl)pyridin-2-yl)-1-oxoisoindolin-2-yl)piperidine-2,6-dione]
0.0077 µM	O=C1CCC(N2Cc3cc(-c4cc(CN5CCC5COc5ccc(F)cc5)ccn4)ccc3C2=O)C(=O)N1 (stereo not shown) [Example 192, 3-(5-(4-((2-((4-fluorophenoxy)methyl)azetidin-1-yl)methyl)pyridin-2-yl)-1-oxoisoindolin-2-yl) piperidine-2,6-dione]
0.0235 µM	CC(C)(C)OC(=O)NC[C@@H]1CCCN1Cc1ccnc(-c2ccc3c(c2)CN(C2CCC(=O)NC2=O)C3=O)c1 (stereo partly drawn) [Example 195, tert-butyl (((2S)-1-((2-(2-(2,6-dioxopiperidin-3-yl)-1-oxoisoindolin-5-yl)pyridin-4-yl)methyl)pyrrolidin-2-yl)methyl)carbamate]
0.0026 µM	CC(C)OCC1CCN1Cc1ccnc(-c2ccc3c(c2)CN(C2CCC(=O)NC2=O)C3=O)c1 (stereo not shown) [Example 196, 3-(5-(4-((2-(isopropoxymethyl)azetidin-1-yl)methyl)pyridin-2-yl)-1-oxoisoindolin-2-yl)piperidine-2,6-dione]
0.0519 µM	CC1(F)CCN(Cc2ccnc(-c3ccc4c(c3)CN(C3CCC(=O)NC3=O)C4=O)c2F)CC1 (stereo not shown) [Example 198, 3-(5-(3-fluoro-4-((4-fluoro-4-methylpiperidin-1-yl)methyl)pyridin-2-yl)-1-oxoisoindolin-2-yl)piperidine-2,6-dione]
≥ 10 µM	CC(=O)N1CCCCN1Cc1ccnc(-c2ccc3c(c2)CN(C2CCC(=O)NC2=O)C3=O)c1F (stereo not shown) [Example 199, 3-(5-(4-((2-acetyltetrahydropyridazin-1(2H)-yl)methyl)-3-fluoropyridin-2-yl)-1-oxoisoindolin-2-yl)piperidine-2,6-dione]
≥ 10 µM	O=C1CCC(N2Cc3cc(-c4nccc(CN5CCCC(F)C5)c4F)ccc3C2=O)C(=O)N1 (stereo not shown) [Example 205, 3-(5-(3-fluoro-4-((3-fluoropiperidin-1-yl)methyl)pyridin-2-yl)-1-oxoisoindolin-2-yl)piperidine-2,6-dione]
0.0111 µM	CC1(C)C2CN(Cc3ccnc(-c4ccc5c(c4)CN(C4CCC(=O)NC4=O)C5=O)c3F)CC21 (stereo not shown) [Example 206, 3-(5-(4-((6,6-dimethyl-3-azabicyclo[3.1.0]hexan-3-yl)methyl)-3-fluoropyridin-2-yl)-1-oxoisoindolin-2-yl)piperidine-2,6-dione]
≥ 10 µM	CC(C)(C)OC(=O)N1CCC2(CN(Cc3ccnc(-c4ccc5c(c4)CN(C4CCC(=O)NC4=O)C5=O)c3F)C2)C1 (stereo not shown) [Example 207, tert-butyl 2-((2-(2-(2,6-dioxopiperidin-3-yl)-1-oxoisoindolin-5-yl)-3-fluoropyridin-4-yl)methyl)-2,6-diazaspiro[3.4]octane-6-carboxylate]

Compound	DC50
CC(C)(C)OC(=O)N1CC2CCCN(Cc3ccnc(-c4ccc5c(c4)CN(C4CCC(=O)NC4=O)C5=O)c3F)C2C1 (stereo not shown) [Example 204, tert-butyl 1-((2-(2-(2,6-dioxopiperidin-3-yl)-1-oxoisoindolin-5-yl)-3-fluoropyridin-4-yl)methyl) octahydro-6H-pyrrolo[3,4-b]pyridine-6-carboxylate]	≥ 10 µM
